Data taken from publication PMC2212407 (The Journal of Experimental Medicine, 1998).
Like-named read-outs stand apart in the source and are kept apart here.

Tests used:
Type in all cases: cell-based, human
[1] = test system: fresh PBMCs from asymptomatic HIV-1+ patients
[2] = test system: fresh PBMCs from patient 744; test: Proliferation assay of fresh PBMCs from patient 744
T cell line 024 = test: Proliferation of CD4+ T cell line 024; details: T cell line 024 initiated on day 71, autologous APCs
[3] = test system: fresh PBMCs from patient 024

| Substance | Mean proliferation (SI) ([1]; Total, 43 patients) | Mean proliferation (SI) ([1]; patients responding to PHA and tetanus toxoid only (n = 12)) | Mean proliferation (SI) ([1]; patients responding to PHA, tetanus toxoid, and HIV antigens (n = 12)) | Proliferation of fresh PBMCs from patient 744, result in words [2] | Stimulation of T cell line 024, result in words (T cell line 024) | Proliferative response (SI) [3] |
| --- | --- | --- | --- | --- | --- | --- |
| Tetanus toxoid: the recall antigen tetanus toxoid | 21 ± 65 | 45 ± 117 | 31 ± 32 | showed a response |  |  |
| LRPGGKKQYRLKHIV [p17-3/2] |  |  |  |  | failed to stimulate |  |
| LRPRGKKRYKLKHIV [p17-3/1] |  |  |  |  | failed to stimulate | 1 |
